Like-named read-outs stand apart in the source and are kept apart here.
Tests used:
[1] = system: Key Broadleaf Weed and Crop Species; assay: Post-emergent Test II herbicidal activity (Table 5); assay type: in vivo; conditions: post-emergence, 336 h, 14 days after application; for pest or weed control at 70 g/ha: application rate 70 g ai/ha; for pest or weed control at 140 g/ha: application rate 140 g ai/ha
Summary of the method: (§1)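 Foliar application at 187 L/ha to greenhouse-grown seedlings (first or second true leaf); subirrigation thereafter. Visual 0–100% injury at 14 d relative to untreated plants.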

[2] = system: Key Grass and Sedge Weeds as well as Grass Crops; assay: Post-emergent Test II herbicidal activity (Table 6); assay type: in vivo; conditions: post-emergence, 336 h; for pest or weed control at 70 g/ha: 70 g ai/ha; for pest or weed control at 140 g/ha: 140 g ai/ha
Summary of the method: as §1

[3] = ABUTH: velvetleaf (Abutilon theophrasti), read-out: Visual Growth Reduction (%) 14 Days After Application, ABUTH
[4] = AMARE: redroot pigweed (Amaranthus retroflexus), read-out: Visual Growth Reduction (%) 14 Days After Application, AMARE
[5] = BRSNN: oilseed-rape, canola (Brassica napus), read-out: Visual Growth Reduction (%) 14 Days After Application, BRSNN
[6] = CHEAL: lambsquarters (Chenopodium album), read-out: Visual Growth Reduction (%) 14 Days After Application, CHEAL
[7] = EPHHL: wild poinsettia (Euphorbia heterophylla), read-out: Visual Growth Reduction (%) 14 Days After Application, EPHHL
[8] = HELAN: sunflower (Helianthus annuus), read-out: Visual Growth Reduction (%) 14 Days After Application, HELAN
[9] = VIOTR: wild pansy (Viola tricolor), read-out: Visual Growth Reduction (%) 14 Days After Application, VIOTR
[10] = CYPES: yellow nutsedge (Cyperus esculentus), read-out: Visual Growth Reduction (%) 14 Days After Application, CYPES
[11] = DIGSA: crabgrass (Digitaria sanguinalis), read-out: Visual Growth Reduction (%) 14 Days After Application, DIGSA
[12] = ECHCG: barnyardgrass (Echinochloa crus-galli), read-out: Visual Growth Reduction (%) 14 Days After Application, ECHCG
[13] = ORYSA: rice (Oryza sativa), crop, read-out: Visual Growth Reduction (%) 14 Days After Application, ORYSA
[14] = SETFA: giant foxtail (Setaria faberi), read-out: Visual Growth Reduction (%) 14 Days After Application, SETFA
[15] = SORVU: grain sorghum (Sorghum vulgare), read-out: Visual Growth Reduction (%) 14 Days After Application, SORVU
[16] = TRZSS (wheat, Triticum aestivum), crop, read-out: Visual Growth Reduction (%) 14 Days After Application, TRZSS
[17] = ZEAMX: maize, corn (Zea mays), crop, read-out: Visual Growth Reduction (%) 14 Days After Application, ZEAMX

**Q.** For `C#Cc1ccc(-c2nc(C(=O)O)c(Cl)c(N)c2F)c(F)c1` [Compound 108], which pest or weed control at 70 g/ha [1, 3] is on record?
**A.** The pest or weed control at 70 g/ha was 45 to 59%.

**Q.** What about the pest or weed control at 140 g/ha [1, 3] of the same molecule?
**A.** Its pest or weed control at 140 g/ha is 75 to 84%.

**Q.** What about the pest or weed control at 70 g/ha [1, 4] of the same molecule?
**A.** Its pest or weed control at 70 g/ha is 75 to 84%.

**Q.** What about the pest or weed control at 140 g/ha [1, 4] of the same molecule?
**A.** The pest or weed control at 140 g/ha was 95 to 100%.

**Q.** What about the pest or weed control at 70 g/ha [1, 5] of the same molecule?
**A.** Its pest or weed control at 70 g/ha is 85 to 94%.

**Q.** And the pest or weed control at 140 g/ha [1, 5]?
**A.** The pest or weed control at 140 g/ha was 85 to 94%.

**Q.** And the pest or weed control at 70 g/ha [1, 6]?
**A.** The pest or weed control at 70 g/ha was 60 to 74%.

**Q.** And the pest or weed control at 140 g/ha [1, 6]?
**A.** Its pest or weed control at 140 g/ha is 75 to 84%.

**Q.** And the pest or weed control at 70 g/ha [1, 7]?
**A.** Its pest or weed control at 70 g/ha is 85 to 94%.

**Q.** And the pest or weed control at 140 g/ha [1, 7]?
**A.** The pest or weed control at 140 g/ha was 95 to 100%.

**Q.** And the pest or weed control at 70 g/ha [1, 8]?
**A.** Its pest or weed control at 70 g/ha is 85 to 94%.

**Q.** And the pest or weed control at 140 g/ha [1, 8]?
**A.** The pest or weed control at 140 g/ha was 95 to 100%.

**Q.** What about the pest or weed control at 70 g/ha [1, 9] of the same molecule?
**A.** Its pest or weed control at 70 g/ha is 0 to 29%.

**Q.** What about the pest or weed control at 140 g/ha [1, 9] of the same molecule?
**A.** The pest or weed control at 140 g/ha was 45 to 59%.

**Q.** And the pest or weed control at 70 g/ha [2, 10]?
**A.** Its pest or weed control at 70 g/ha is 45 to 59%.

**Q.** What about the pest or weed control at 140 g/ha [2, 10] of the same molecule?
**A.** Its pest or weed control at 140 g/ha is 30 to 44%.

**Q.** What about the pest or weed control at 70 g/ha [2, 11] of the same molecule?
**A.** Its pest or weed control at 70 g/ha is 60 to 74%.

**Q.** What about the pest or weed control at 140 g/ha [2, 11] of the same molecule?
**A.** Its pest or weed control at 140 g/ha is 60 to 74%.

**Q.** And the pest or weed control at 70 g/ha [2, 12]?
**A.** Its pest or weed control at 70 g/ha is 45 to 59%.

**Q.** And the pest or weed control at 140 g/ha [2, 12]?
**A.** The pest or weed control at 140 g/ha was 75 to 84%.

**Q.** What about the pest or weed control at 70 g/ha [2, 13] of the same molecule?
**A.** Its pest or weed control at 70 g/ha is 0 to 29%.

**Q.** What about the pest or weed control at 140 g/ha [2, 13] of the same molecule?
**A.** Its pest or weed control at 140 g/ha is 0 to 29%.

**Q.** And the pest or weed control at 70 g/ha [2, 14]?
**A.** The pest or weed control at 70 g/ha was 45 to 59%.

**Q.** And the pest or weed control at 140 g/ha [2, 14]?
**A.** The pest or weed control at 140 g/ha was 30 to 44%.

**Q.** And the pest or weed control at 70 g/ha [2, 15]?
**A.** The pest or weed control at 70 g/ha was 0 to 29%.

**Q.** What about the pest or weed control at 140 g/ha [2, 15] of the same molecule?
**A.** Its pest or weed control at 140 g/ha is 30 to 44%.

**Q.** What about the pest or weed control at 70 g/ha [2, 16] of the same molecule?
**A.** Its pest or weed control at 70 g/ha is 30 to 44%.

**Q.** What about the pest or weed control at 140 g/ha [2, 16] of the same molecule?
**A.** The pest or weed control at 140 g/ha was 30 to 44%.

**Q.** What about the pest or weed control at 70 g/ha [2, 17] of the same molecule?
**A.** Its pest or weed control at 70 g/ha is 0 to 29%.

**Q.** And the pest or weed control at 140 g/ha [2, 17]?
**A.** Its pest or weed control at 140 g/ha is 45 to 59%.

**Q.** What about the melting point of the same molecule?
**A.** The melting point was 165 to 175 °C (dec.).

Source: patent US9113629B2, “4-amino-6-(4-substituted-phenyl)-picolinates and 6-amino-2-(4-substituted-phenyl)-pyrimidine-4-carboxylates and their use as herbicides” (DOW AGROSCIENCES LLC, priority 2013, dated 2015)
